From patent US9249163B2, “PDE10a inhibitors for the treatment of type II diabetes” (Janssen Pharmaceutica, NV, priority 2013, dated 2016)
Where a name gives a salt, the structure may show the parent alone.

What was measured:
[1] = target: Rat recombinant PDE10a (rPDE10a) (Rattus norvegicus (Rat), UniProt Q9QYJ6); experiment: In vitro assay PDE10a (rat recombinant PDE10a, SPA); type: biochemical; settings: 60 nM cAMP, 60 min at rt, read-out: rPDE10a2 IC50
Summary of the method: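 Rat PDE10a expressed in Sf9 cells (baculovirus) and Ni-sepharose purified. Incubated with compound for 60 min at rt in 50 mM Tris pH 7.8, 8.3 mM MgCl2, 1.7 mM EGTA with 60 nM cAMP plus 0.008 μCi ^3H-cAMP (final), 1% DMSO. Read-out by PDE SPA bead scintillation counting (cpm), no-enzyme blank.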

[2] = target: Human recombinant PDE10A2 (Homo sapiens (Human), UniProt Q9Y233); experiment: In vitro hPDE10a (human recombinant PDE10A2, scintillation proximity assay); type: biochemical; settings: human recombinant PDE10A2, 60 nM cAMP, 60 min at room temperature; read-out: hPDE10a2 IC50
[3] = PDE10a-perfused brain permeability study (plasma and brain concentrations); settings: male, Sprague-Dawley, rat; for Kp at 2 h: brain/plasma
Protocol: Drug administration by oral gavage, subcutaneous injection or intravenous was carried out using male Sprague Dawley rats under IACUC protocol (SH-MET3010). Male Sprague Dawley rats (Charles River) ˜300-350 g were maintained on a 4% standard rodent diet (Test Diet 5001). They are allowed ad libitum access to water and food. Room temperature was maintained at 64° F. and humidity at 30-70%.
Three animals per compound were provided a dose of 2 mg/mL in 20% HpbCD/Tris pH 8 by tail i.v. or 30 mpk p.o. or s.c. in 20% HpbCD/Tris pH 8, with PDE10a antagonists. A first blood sample was collected at 30 min via retro-orbital sinus (anesthetic by 70% CO2/30% O2) into heparinzed plasma separator tubes. The blood was centrifuged and 100 uL plasma was placed into a 96 well plate and saved on dry ice.
After the 120 min, the final blood sample was collected via retro-orbital sinus under anesthesia by IP 0.5 cc injection of a 4/1 mixture of Ketaset: AnaSed [(prepared 10 mL Ketaset (100 mg/mL Ketamine)+2.5 mL AnaSed (20 mg/mL Xylazine)]. The rats were then perfused with 400 mL heparinized saline (10,000 units/L) through the left ventricle of the heart; the brains were then removed (not including the medulla), weighed and homogenized in PBS (4 mL/g tissue). The samples were stored at −80° C. and submitted for chemical analysis of blood and brain concentrations. Endpoints of sample analysis consists of the plasma concentrations at 30 and 120 min, plus brain concentrations at 120 min.

Human recombinant PDE10A2, sequence (Q9Y233 267-1055): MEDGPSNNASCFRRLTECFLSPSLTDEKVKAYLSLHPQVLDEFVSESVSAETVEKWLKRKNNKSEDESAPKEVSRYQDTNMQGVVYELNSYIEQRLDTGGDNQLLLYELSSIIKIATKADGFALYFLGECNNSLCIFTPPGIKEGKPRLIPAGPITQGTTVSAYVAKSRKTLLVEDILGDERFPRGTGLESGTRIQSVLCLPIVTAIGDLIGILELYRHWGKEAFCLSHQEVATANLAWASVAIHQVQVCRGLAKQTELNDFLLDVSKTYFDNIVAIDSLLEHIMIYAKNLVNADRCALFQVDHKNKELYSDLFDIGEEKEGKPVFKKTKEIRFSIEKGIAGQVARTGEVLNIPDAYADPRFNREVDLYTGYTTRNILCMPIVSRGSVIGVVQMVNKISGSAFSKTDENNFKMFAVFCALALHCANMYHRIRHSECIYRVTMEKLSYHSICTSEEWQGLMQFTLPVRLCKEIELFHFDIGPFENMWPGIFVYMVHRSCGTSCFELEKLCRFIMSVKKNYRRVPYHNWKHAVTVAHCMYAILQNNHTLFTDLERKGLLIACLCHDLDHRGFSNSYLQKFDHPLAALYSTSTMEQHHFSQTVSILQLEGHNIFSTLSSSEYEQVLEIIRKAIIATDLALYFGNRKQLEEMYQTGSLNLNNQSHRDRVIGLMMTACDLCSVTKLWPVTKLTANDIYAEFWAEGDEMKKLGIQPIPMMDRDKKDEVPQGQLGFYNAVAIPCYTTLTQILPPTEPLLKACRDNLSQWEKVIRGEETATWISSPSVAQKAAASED
Rat recombinant PDE10a (rPDE10a), sequence (Q9QYJ6 whole entry): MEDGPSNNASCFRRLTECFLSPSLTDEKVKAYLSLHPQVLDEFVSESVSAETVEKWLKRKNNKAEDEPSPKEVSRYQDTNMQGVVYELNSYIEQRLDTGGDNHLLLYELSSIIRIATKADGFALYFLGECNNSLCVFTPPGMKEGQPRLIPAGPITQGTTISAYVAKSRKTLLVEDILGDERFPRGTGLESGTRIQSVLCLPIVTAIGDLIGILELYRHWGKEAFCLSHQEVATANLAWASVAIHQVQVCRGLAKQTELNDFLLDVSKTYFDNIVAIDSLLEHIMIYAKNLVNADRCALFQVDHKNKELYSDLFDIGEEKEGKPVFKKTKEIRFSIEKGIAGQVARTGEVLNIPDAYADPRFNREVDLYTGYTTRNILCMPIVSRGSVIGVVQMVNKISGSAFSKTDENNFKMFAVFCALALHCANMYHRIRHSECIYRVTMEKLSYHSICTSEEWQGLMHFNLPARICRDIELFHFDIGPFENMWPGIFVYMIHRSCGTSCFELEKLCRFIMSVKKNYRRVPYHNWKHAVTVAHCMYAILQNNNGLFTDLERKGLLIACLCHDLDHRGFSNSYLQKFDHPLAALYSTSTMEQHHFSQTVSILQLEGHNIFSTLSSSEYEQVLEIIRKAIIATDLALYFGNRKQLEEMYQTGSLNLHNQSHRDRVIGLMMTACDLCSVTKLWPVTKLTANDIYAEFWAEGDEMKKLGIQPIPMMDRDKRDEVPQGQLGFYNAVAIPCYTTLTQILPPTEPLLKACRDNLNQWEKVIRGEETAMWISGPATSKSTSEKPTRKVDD

| SMILES | IC50 [1] [µM] | IC50 [2] [µM] | concentration at 2 h ([3]; brain) [ng/g] | Kp at 2 h [3] | concentration at 2 h ([3]; plasma) [ng/mL] |
| --- | --- | --- | --- | --- | --- |
| O=C(O)C1CCN(c2ccc(-c3cnc(N4CCOCC4)c4nc(/C=C/c5ccc6ccccc6n5)cn34)cc2)CC1 [Cpd 14, (E)-1-(4-(8-Morpholino-2-(2-(quinolin-2-yl)vinyl)imidazo[1,2-a]pyrazin-5-yl)phenyl)piperidine-4-carboxylic acid trifluoroacetic acid salt] | 0.011 | 0.006 | 35.5 | 0.07 | 503 |
| CC(=O)NS(=O)(=O)c1ccc(-c2cnc(N3CCOCC3)c3nc(/C=C/c4ccc5ccccc5n4)cn23)cc1 [Cpd 69, (E)-N-(4-(8-Morpholino-2-(2-(quinolin-2-yl)vinyl)imidazo[1,2-a]pyrazin-5-yl)phenylsulfonyl)acetamide trifluoroacetic acid salt] | 0.004 | 0.004 | 36.1 | 1 | 73.6 |
| O=c1[nH]c(-c2ccc(-c3cnc(N4CCOCC4)c4nc(CCc5ccc6ccccc6n5)cn34)cn2)no1 [Cpd 74, 3-[5-[8-(Morpholin-4-yl)-2-[2-(quinolin-2-yl)ethyl]imidazo[1,2-a]pyrazin-5-yl]pyridin-2-yl]-4,5-dihydro-1,2,4-oxadiazol-5-one] | < 0.001 | 0.001 | 0 | 0 | 58 |
| CS(=O)(=O)NC(=O)c1ccc(-c2cnc(N3CCOCC3)c3nc(COc4ccc5ccccc5n4)cn23)cn1 [Cpd 76, N-Methanesulfonyl-5-[8-(morpholin-4-yl)-2-[(quinolin-2-yloxy)methyl]imidazo[1,2-a]pyrazin-5-yl]pyridine-2-carboxamide] | 0.003 | 0.002 | 0 | 0 | 115 |
| C(=C\c1cn2c(-c3ccc(-c4nnc[nH]4)nc3)cnc(N3CCOCC3)c2n1)/c1ccc2ccccc2n1 [Cpd 91, (E)-4-(5-(6-(2H-1,2,4-Triazol-3-yl)pyridin-3-yl)-2-(2-(quinolin-2-yl)vinyl)imidazo[1,2-a]pyrazin-8-yl)morpholine] | 0.003 | 0.012 | 112 | 0.55 | 209 |
| c1ccc2nc(OCc3cn4c(-c5ccc(Sc6cnn[nH]6)nc5)cnc(N5CCOCC5)c4n3)ccc2c1 [Cpd 92, 4-(5-(6-((1H-1,2,3-Triazol-5-yl)thio)pyridin-3-yl)-2-((quinolin-2-yloxy)methyl)imidazo[1,2-a]pyrazin-8-yl)morpholine] | 0.003 | 0.006 | 78.3 | 0.77 | 135 |
| C(=C\c1cn2c(-c3cnc4nc[nH]c4c3)cnc(N3CCOCC3)c2n1)/c1ccc2ccccc2n1 [Cpd 93, (E)-4-(5-(3H-Imidazo[4,5-b]pyridin-6-yl)-2-(2-(quinolin-2-yl)vinyl)imidazo[1,2-a]pyrazin-8-yl)morpholine] | 0.01 | 0.013 | 0 | 0 | 98 |
| O=c1[nH]c(-c2ccc(-c3cnc(N4CCOCC4)c4nc(/C=C/c5ccc6ccccc6n5)cn34)cn2)no1 [Cpd 95, (E)-3-(5-(8-Morpholino-2-(2-(quinolin-2-yl)vinyl)imidazo[1,2-a]pyrazin-5-yl)pyridin-2-yl)-1,2,4-oxadiazol-5-ol] | < 0.001 | 0.005 | 0 | 0 | 113 |
| c1ccc2nc(OCc3cn4c(-c5ccc(-c6nnn[nH]6)nc5)cnc(N5CCOCC5)c4n3)ccc2c1 [Cpd 97, 4-(5-(6-(1H-Tetrazol-5-yl)pyridin-3-yl)-2-((quinolin-2-yloxy)methyl)imidazo[1,2-a]pyrazin-8-yl)morpholine] | 0.001 | 0.001 | 0 | 0 | 84 |
| O=C(O)CNc1ccc(-c2cnc(N3CCOCC3)c3nc(COc4ccc5ccccc5n4)cn23)cn1 [Cpd 107, 2-((5-(8-Morpholino-2-((quinolin-2-yloxy)methyl)imidazo[1,2-a]pyrazin-5-yl)pyridin-2-yl)amino)acetic acid trifluoroacetic acid salt] | 0.002 | 0.002 | 0 | 0 | 22.5 |
| NS(=O)(=O)N1CCC(c2cnc(N3CCOCC3)c3nc(COc4ccc5ccccc5n4)cn23)CC1 [Cpd 109, 4-(8-Morpholino-2-((quinolin-2-yloxy)methyl)imidazo[1,2-a]pyrazin-5-yl)piperidine-1-sulfonamide trifluoroacetic acid salt] | 0.087 | 0.11 | 8.15 | 0.03 | 226 |
| O=C(O)CN1CCC(c2cnc(N3CCOCC3)c3nc(COc4ccc5ccccc5n4)cn23)CC1 [Cpd 110, 2-(4-(8-Morpholino-2-((quinolin-2-yloxy)methyl)imidazo[1,2-a]pyrazin-5-yl)piperidin-1-yl)acetic acid trifluoroacetic acid salt] | 0.288 | 0.407 | 0 | 0 | 4.63 |
| c1ccc2nc(OCc3cn4c(-c5ccc(N6CCNCC6)nc5)cnc(-c5ccc6nc[nH]c6c5)c4n3)ccc2c1 [Cpd 119, 2-((8-(1H-Benzo[d]imidazol-6-yl)-5-(6-(piperazin-1-yl)pyridin-3-yl)imidazo[1,2-a]pyrazin-2-yl)methoxy)quinoline trifluoroacetic acid salt] | 0.026 | 0.054 | 108 | 2.99 | 53.8 |
| c1ccc2nc(OCc3cn4c(-c5cnc(N6CCNCC6)nc5)cnc(N5CCOCC5)c4n3)ccc2c1 [Cpd 121, 4-(5-(2-(Piperazin-1-yl)pyrimidin-5-yl)-2-((quinolin-2-yloxy)methyl)imidazo[1,2-a]pyrazin-8-yl)morpholine methane sulfonic acid salt] | 0.083 | 0.059 | 81.5 | 1.55 | 55.1 |
| Nc1ccc(-c2cnc(N3CCOCC3)c3nc(COc4ccc5ccccc5n4)cn23)cn1 [Cpd 122, 5-(8-Morpholino-2-((quinolin-2-yloxy)methyl)imidazo[1,2-a]pyrazin-5-yl)pyridin-2-amine methane sulfonic acid salt] | 0.008 | – | 98.2 | – | 35.6 |
| O=C(Nc1cn2c(-c3ccc(N4CCNCC4)nc3)cnc(N3CCOCC3)c2n1)c1ccc2ccccc2n1 [Cpd 125, N-(8-Morpholino-5-(6-(piperazin-1-yl)pyridin-3-yl)imidazo[1,2-a]pyrazin-2-yl)quinoline-2-carboxamide hydrochloric acid salt] | 0.339 | 0.309 | 54.9 | 1.2 | 45.9 |
| c1ccc2nc(OCc3cn4c(-c5ccc(N6CCNCC6)nc5)cnc(N5CCOCC5)c4n3)ccc2c1 [Cpd 126, 4-(5-(6-(piperazin-1-yl)pyridin-3-yl)-2-((quinolin-2-yloxy)methyl)imidazo[1,2-a]pyrazin-8-yl)morpholine methane sulfonic acid salt] | 0.013 | 0.034 | 49.3 | 2.26 | 22.4 |
| Cc1ccc(-c2cnc(N3CCOCC3)c3nc(COc4ccc5ccccc5n4)cn23)cn1 [Cpd 128, 4-(5-(6-Methylpyridin-3-yl)-2-((quinolin-2-yloxy)methyl)imidazo[1,2-a]pyrazin-8-yl)morpholine methane sulfonic acid salt] | 0.031 | 0.03 | 1.85 | 0.58 | 16.4 |
| c1cncc(-c2cnc(N3CCOCC3)c3nc(COc4ccc5ccccc5n4)cn23)c1 [Cpd 129, 4-(5-(Pyridin-3-yl)-2-((quinolin-2-yloxy)methyl)imidazo[1,2-a]pyrazin-8-yl)morpholine methane sulfonic acid salt] | 0.027 | 0.031 | 21.9 | 2.07 | 11 |
| c1ccc2nc(OCc3cn4c(-c5ccc(N6CCOCC6)nc5)cnc(N5CCOCC5)c4n3)ccc2c1 [Cpd 131, 4-(5-(8-Morpholino-2-((quinolin-2-yloxy)methyl)imidazo[1,2-a]pyrazin-5-yl)pyridin-2-yl)morpholine] | 0.011 | 0.051 | 57.3 | 2.04 | 28.1 |
